According to US8329717B2, “Pyrimidine derivatives and their use for controlling undesired plant growth” (Bayer Cropscience AG, priority 2008, dated 2012):

Key:
[1] = test system: Alopecurus myosuroides; assay: Pre-emergence herbicidal effect; type: in vivo; conditions: Dosage 320 g/ha, visual scoring after 3 weeks vs untreated controls, 100% = plants have died
Source text: (§1) 1. Pre-Emergence Herbicidal Effect and Crop Plant Compatibility Seeds of monocotyledonous or dicotyledonous weed plants or crop plants are planted in wood-fiber pots in sandy loam and covered with earth. The compounds according to the invention, formulated in the form of wettable powders (WP) or as emulsion concentrates (EC), are then applied as aqueous suspension or emulsion at a water application rate of 600 to 800 l/ha (converted) with the addition of 0.2% of wetting agent to the surface of the covering earth. The dosage of the compounds according to the invention is given in grams per hectare. Following the treatment, the pots are placed in a greenhouse and kept under good growth conditions for the test plants. The visual scoring of the damage on the test plants is carried out after an experiment time of 3 weeks in comparison with untreated controls (herbicidal effect in percent (%): 100% effect=plants have died, 0% effect=as control plants). The following abbreviations are used in the tables below: [table]

[2] = test system: Amaranthus retroflexus; assay: Pre-emergence herbicidal effect; type: in vivo; conditions: Dosage 320 g/ha, visual scoring after 3 weeks vs untreated controls, 100% = plants have died
Source text: as §1

[3] = test system: Echinochloa crus-galli; assay: Pre-emergence herbicidal effect; type: in vivo; conditions: Dosage 320 g/ha, visual scoring after 3 weeks vs untreated controls, 100% = plants have died
Source text: as §1

[4] = test system: Lolium multiflorum; assay: Pre-emergence herbicidal effect; type: in vivo; conditions: Dosage 320 g/ha, visual scoring after 3 weeks vs untreated controls, 100% = plants have died
Source text: as §1

[5] = test system: Matricaria inodora; assay: Pre-emergence herbicidal effect; type: in vivo; conditions: Dosage 320 g/ha, visual scoring after 3 weeks vs untreated controls, 100% = plants have died
Source text: as §1

[6] = test system: Polygonum convolvulus; assay: Pre-emergence herbicidal effect; type: in vivo; conditions: Dosage 320 g/ha, visual scoring after 3 weeks vs untreated controls, 100% = plants have died
Source text: as §1

[7] = test system: Setaria viridis; assay: Pre-emergence herbicidal effect; type: in vivo; conditions: Dosage 320 g/ha, visual scoring after 3 weeks vs untreated controls, 100% = plants have died
Source text: as §1

[8] = test system: Stellaria media; assay: Pre-emergence herbicidal effect; type: in vivo; conditions: Dosage 320 g/ha, visual scoring after 3 weeks vs untreated controls, 100% = plants have died
Source text: as §1

[9] = test system: Veronica persica; assay: Pre-emergence herbicidal effect; type: in vivo; conditions: Dosage 320 g/ha, visual scoring after 3 weeks vs untreated controls, 100% = plants have died
Source text: as §1

[10] = test system: Viola tricolor; assay: Pre-emergence herbicidal effect; type: in vivo; conditions: Dosage 320 g/ha, visual scoring after 3 weeks vs untreated controls, 100% = plants have died
Source text: as §1

[11] = test system: PHBPU; assay: Post-emergence herbicidal effect; type: in vivo; conditions: Dosage 320 g/ha, one-leaf stage, visual scoring after ca. 3 weeks vs untreated controls, 100% = plants have died
Protocol: (§2) 2. Post-Emergence Herbicidal Effect and Crop Plant Compatibility Seeds of monocotyledonous or dicotyledonous weed plants or crop plants are planted in wood-fiber pots in sandy loam, covered with earth and grown in a greenhouse under good growth conditions. 2 to 3 weeks after sowing, the test plants are treated in the one-leaf stage. The compounds according to the invention, formulated in the form of wettable powders (WP) or as emulsion concentrates (EC), are then sprayed onto the green plant parts as aqueous suspension or emulsion at a water application rate of 600 to 800 l/ha (converted) with the addition of 0.2% of wetting agent. The dosage of the compounds according to the invention is given in grams per hectare. After ca. 3 weeks' standing time of the test plants in the greenhouse under optimum growth conditions, the effect of the preparations is scored visually in comparison with untreated controls (herbicidal effect in percent (%): 100% effect=plants have died, 0% effect=as control plants).

[12] = test system: Abutilon theophrasti; assay: Post-emergence herbicidal effect; type: in vivo; conditions: Dosage 320 g/ha, one-leaf stage, visual scoring after ca. 3 weeks vs untreated controls, 100% = plants have died
Protocol: as §2, with “The following abbreviations are used in the tables below: [table] 2.” for “2.”

[13] = test system: Amaranthus retroflexus; assay: Post-emergence herbicidal effect; type: in vivo; conditions: Dosage 320 g/ha, one-leaf stage, visual scoring after ca. 3 weeks vs untreated controls, 100% = plants have died
Protocol: as §2, with “The following abbreviations are used in the tables below: [table] 2.” for “2.”

[14] = test system: Echinochloa crus-galli; assay: Post-emergence herbicidal effect; type: in vivo; conditions: Dosage 320 g/ha, one-leaf stage, visual scoring after ca. 3 weeks vs untreated controls, 100% = plants have died
Protocol: as §2, with “The following abbreviations are used in the tables below: [table] 2.” for “2.”

[15] = test system: Stellaria media; assay: Post-emergence herbicidal effect; type: in vivo; conditions: Dosage 320 g/ha, one-leaf stage, visual scoring after ca. 3 weeks vs untreated controls, 100% = plants have died
Protocol: as §2, with “The following abbreviations are used in the tables below: [table] 2.” for “2.”

[16] = test system: Veronica persica; assay: Post-emergence herbicidal effect; type: in vivo; conditions: Dosage 320 g/ha, one-leaf stage, visual scoring after ca. 3 weeks vs untreated controls, 100% = plants have died
Protocol: as §2, with “The following abbreviations are used in the tables below: [table] 2.” for “2.”

[17] = test system: Viola tricolor; assay: Post-emergence herbicidal effect; type: in vivo; conditions: Dosage 320 g/ha, one-leaf stage, visual scoring after ca. 3 weeks vs untreated controls, 100% = plants have died
Protocol: as §2, with “The following abbreviations are used in the tables below: [table] 2.” for “2.”

[18] = logp (HCOOH), chemicophysical data; conditions: HCOOH
[19] = test system: Avena fatua; assay: Pre-emergence herbicidal effect; type: in vivo; conditions: Dosage 320 g/ha, visual scoring after 3 weeks vs untreated controls, 100% = plants have died
Source text: as §1

[20] = test system: Setaria viridis; assay: Post-emergence herbicidal effect; type: in vivo; conditions: Dosage 320 g/ha, one-leaf stage, visual scoring after ca. 3 weeks vs untreated controls, 100% = plants have died
Protocol: as §2, with “The following abbreviations are used in the tables below: [table] 2.” for “2.”

[21] = test system: Lolium multiflorum; assay: Post-emergence herbicidal effect; type: in vivo; conditions: Dosage 320 g/ha, one-leaf stage, visual scoring after ca. 3 weeks vs untreated controls, 100% = plants have died
Protocol: as §2, with “The following abbreviations are used in the tables below: [table] 2.” for “2.”

[22] = test system: Alopecurus myosuroides; assay: Post-emergence herbicidal effect; type: in vivo; conditions: Dosage 320 g/ha, one-leaf stage, visual scoring after ca. 3 weeks vs untreated controls, 100% = plants have died
Protocol: as §2, with “The following abbreviations are used in the tables below: [table] 2.” for “2.”

SMILES | Pre-emergence herbicidal effect ALOMY [1] | Pre-emergence herbicidal effect AMARE [2] | Pre-emergence herbicidal effect ECHCG [3] | Pre-emergence herbicidal effect LOLMU [4] | Pre-emergence herbicidal effect MATIN [5] | Pre-emergence herbicidal effect POLCO [6] | Pre-emergence herbicidal effect SETVI [7] | Pre-emergence herbicidal effect STEME [8] | Pre-emergence herbicidal effect VERPE [9] | Pre-emergence herbicidal effect VIOTR [10] | Post-emergence herbicidal effect ABUTH [12] | Post-emergence herbicidal effect AMARE [13] | Post-emergence herbicidal effect ECHCG [14] | Post-emergence herbicidal effect STEME [15] | Post-emergence herbicidal effect VERPE [16] | Post-emergence herbicidal effect VIOTR [17] | logp (HCOOH) [18] | Pre-emergence herbicidal effect AVEFA [19] | Post-emergence herbicidal effect SETVI [20] | other results
Cc1nc(NC2CCOc3ccccc32)nc(N)c1[N+](=O)[O-] (racemic) [Example 1.121] | 80% | 100% | 100% | 90% | 100% | 100% | 100% | 100% | 100% | 100% |  |  |  |  |  |  |  |  |  | 
Cc1nc(NC2c3ccccc3CC2C)nc(N)c1[N+](=O)[O-] (racemic) [Example 1.125] | 80% | 90% | 90% |  | 95% | 90% | 90% | 100% | 100% | 100% |  |  |  |  |  |  |  |  |  | 
Nc1nc(N[C@@H]2CCCc3ccccc32)ncc1I [Example 1.37] |  | 100% | 100% | 100% | 90% |  |  | 100% | 100% |  | 85% | 100% | 80% | 95% | 90% | 80% | wax-like; logp (HCOOH): 1.32; 1H-NMR (CDCl3, 400 MHZ, δ in ppm): 1.85 (m, 2H, CH2); |  |  | Post-emergence herbicidal effect PHBPU [11]: 80%
Cc1ccc2c(c1)[C@H](Nc1nc(C)c(I)c(N)n1)[C@@H](C)C2 [Example 1.46] | 80% | 100% |  | 100% | 100% | 100% | 100% | 100% | 100% | 100% | 100% | 100% |  | 90% | 90% | 90% | wax-like; logp (HCOOH): 1.39; 1H-NMR (CDCl3, 400 MHZ, δ in ppm): 1.25 (d, 3H, CH3); | 80% | 90% | 
CCc1nc(N[C@H]2c3cc(C)ccc3C[C@@H]2C)nc(N)c1C#N [Example 1.61] | 100% | 100% | 100% |  | 90% | 100% | 90% | 100% | 100% | 100% | 80% |  | 90% | 90% | 90% | 80% | solid, m.p.: 126.9° C.; logp (HCOOH): 3.07; 1H-NMR (CDCl3, 400 MHZ, δ in ppm): 1.25 | 90% |  | 
CCc1nc(N[C@@H]2CCCc3ccccc32)nc(N)c1C#N [Example 1.63] | 100% | 90% | 100% |  | 100% | 100% | 100% | 100% | 100% | 100% |  |  | 80% | 80% | 80% |  | wax-like; logp (HCOOH): 2.49; 1H-NMR (CDCl3, 400 MHZ, δ in ppm): 1.25 (t, 3H, CH3); | 80% | 80% | 
Cc1ccc2c(c1)[C@H](Nc1nc(N)c(C#N)c(C3(c4ccc(Cl)cc4Cl)CC3)n1)[C@@H](C)C2 [Example 1.94] | 80% | 90% | 90% | 80% | 85% | 80% | 90% | 100% | 100% | 100% |  |  |  |  |  |  | wax-like; logp (HCOOH): 5.55; 1H-NMR (CDCl3, 400 MHZ, δ in ppm): 1.25 (d, 3H, CH3); | 80% |  | 
Nc1nc(N[C@@H]2CCCc3ccccc32)ncc1Br [Example 1.97] | 80% | 100% | 100% | 100% | 100% |  | 100% | 100% | 100% | 100% |  | 80% | 80% | 80% | 80% |  |  |  | 80% | Post-emergence herbicidal effect LOLMU [21]: 80%
Nc1nc(N[C@@H]2CCCc3ccccc32)ncc1Cl [Example 1.106] | 100% | 100% | 90% | 100% | 90% |  | 100% | 100% | 100% |  |  | 80% | 90% | 80% | 80% |  |  |  | 80% | Post-emergence herbicidal effect ALOMY [22]: 80%; Post-emergence herbicidal effect LOLMU [21]: 90%
CC[C@H]1Cc2ccccc2[C@@H]1Nc1nc(C)c([N+](=O)[O-])c(N)n1 [Example 1.126] |  | 100% | 95% |  | 100% | 90% | 85% | 100% | 100% | 100% |  |  | 80% | 90% | 85% |  |  |  |  | Post-emergence herbicidal effect PHBPU [11]: 80%
